Measurements taken from US11780845B2 (Relay Therapeutics, Inc., priority 2019, dated 2023).

These compounds were tested against FGFR2 (Homo sapiens (Human), UniProt P21802) (assay: Biochemical FGFR2 Caliper assay). Details: not given.
Chain of FGFR2 (P21802 22-821): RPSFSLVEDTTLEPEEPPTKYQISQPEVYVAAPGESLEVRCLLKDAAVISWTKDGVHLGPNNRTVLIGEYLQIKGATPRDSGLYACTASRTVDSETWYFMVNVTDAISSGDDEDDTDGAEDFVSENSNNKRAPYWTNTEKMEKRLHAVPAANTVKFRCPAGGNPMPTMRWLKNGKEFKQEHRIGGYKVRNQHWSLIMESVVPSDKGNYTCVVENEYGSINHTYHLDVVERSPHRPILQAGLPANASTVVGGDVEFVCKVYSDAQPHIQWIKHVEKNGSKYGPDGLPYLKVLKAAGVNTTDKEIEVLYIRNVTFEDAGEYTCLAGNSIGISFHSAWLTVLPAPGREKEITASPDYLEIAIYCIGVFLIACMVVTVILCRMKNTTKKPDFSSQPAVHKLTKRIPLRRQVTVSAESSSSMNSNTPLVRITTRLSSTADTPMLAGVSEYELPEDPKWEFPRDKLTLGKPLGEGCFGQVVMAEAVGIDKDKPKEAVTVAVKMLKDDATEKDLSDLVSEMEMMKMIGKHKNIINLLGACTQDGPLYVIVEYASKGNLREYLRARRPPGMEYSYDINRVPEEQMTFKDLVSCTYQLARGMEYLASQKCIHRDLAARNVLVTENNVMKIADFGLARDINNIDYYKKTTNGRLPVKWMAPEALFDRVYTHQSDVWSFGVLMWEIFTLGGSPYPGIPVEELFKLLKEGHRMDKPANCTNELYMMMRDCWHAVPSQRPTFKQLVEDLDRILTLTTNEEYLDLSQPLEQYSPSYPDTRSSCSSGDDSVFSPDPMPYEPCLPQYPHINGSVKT

| IC50 | Compound |
| --- | --- |
| < 100 nM | C=C1C[C@@H](C)N(c2ccc(-c3c(-c4ccc(Oc5nccc(C)n5)cc4)c4c(N)ncnc4n3C)cc2)C1=O [Example 1113] |
| < 100 nM | C=C(C)C(=O)Nc1ccc(-c2cn3ncnc(N)c3c2-c2ccc(C(=O)NC3CCC3)cc2)cc1 [Example 830] |
| 1000 to 100000 nM | C#Cc1ccc(-c2c(-c3ccc(Oc4nccc(C)n4)c(F)c3)c3c(N)ncnc3n2C)c(F)n1 [Example 1200] |
| 100 to 250 nM | C=C(C)C(=O)Nc1ccc(-c2c(-c3ccc(C(=O)N4CCCC4)cc3)c3c(N)nn(C)c(=O)c3n2C)cc1 [Example 878] |
| < 100 nM | C#Cc1ccc(-c2c(C3=CC[C@@H](C(=O)N4CCC[C@H]4COC)CC3)c3c(N)ncnc3n2C)c(C)n1 (single isomer, unassigned) [Example 1211] |
| < 100 nM | C=C(C)C(=O)Nc1ccc(-c2c(-c3ccc(C(=O)NC4(COC)CCC4)c(OC)c3)c3c(N)ncnc3n2C)cc1 [Example 956] |
| < 100 nM | C#Cc1cc(CO)c(-c2c(-c3ccc(Oc4nccc(C)n4)c(F)c3)c3c(N)ncnc3n2C)cn1 [Example 1228] |
| < 100 nM | C#Cc1cc(C)c(-c2c(C3=CC[C@@H](C(=O)N4CCCC45CC5)CC3)c3c(N)ncnc3n2C)cn1 [Example 1341] |
| 1000 to 100000 nM | C=C(C)C(=O)Nc1ccc(-c2c(-c3ccc4occc4c3)c3c(N)ncnc3n2C)cc1 [Example 1288] |
| < 100 nM | C#Cc1ncc(-c2c(C3=CC[C@H](C(=O)N4CCCC4)CC3)c3c(C)ncnc3n2C)c(C)n1 (single isomer, unassigned) [Example 1169] |
| 1000 to 100000 nM | C=CC(=O)Nc1cccc(-c2c(-c3ccc4c(c3)CCCN4C)c3c(N)ncnc3n2C)c1 [Example 1027] |
| < 100 nM | C=C(C)C(=O)Nc1ccc(-c2c(-c3ccc(-c4noc(C5CC5)n4)c(O)c3)c3c(N)ncnc3n2C)cc1 [Example 1373] |
| 1000 to 100000 nM | C=C(C)C(=O)Nc1ccc(-c2oc3ncnc(N)c3c2-c2ccc(Oc3cccc(C)n3)cc2)cc1 [Example 802] |
| 250 to 1000 nM | Cc1ccnc(Oc2ccc(-c3c(-c4ccc(OC[C@@H]5CO5)cc4)n(C)c4ncnc(N)c34)cc2)n1 (single isomer, unassigned) [Example 918] |
| 100 to 250 nM | C=C(C)C(=O)Nc1ccc(-c2c(-c3ccc(Oc4cccc(C)n4)cc3)c3c(N)ncnn3c2C#N)cc1 [Example 824] |
| < 100 nM | C#Cc1cc(C)c(-c2c(-c3ccc(Oc4nccc(C)n4)cn3)c3c(N)ncnc3n2C)cn1 [Example 1327] |
| 100 to 250 nM | C=C(C)C(=O)Nc1ccc(-c2c(C3=CC[C@H](C(=O)N4CCC5(CC5)C4)CC3)c3c(N)ncnc3n2C)cc1 (single isomer, unassigned) [Example 892] |
| 1000 to 100000 nM | C=CC(=O)N[C@H]1CCc2ccc(-c3c(-c4ccc(Oc5nccc(C)n5)cc4)c4c(N)ncnc4n3C)cc2C1 (single isomer, unassigned) [Example 945] |
| < 100 nM | C=C1CCN(c2ccc(-c3c(C4=CC[C@H](C(=O)N5CCCC5)CC4)c4c(C)ncnc4n3C)c(Cl)c2)C1=O (single isomer, unassigned) [Example 1141] |
| < 100 nM | C#Cc1cc(OC)c(-c2c(-c3ccc(Oc4nccc(C)n4)c(F)c3)c3c(C)ncnc3n2C)c(C)n1 (atropisomer, axis not shown) [Example 1446] |
| 250 to 1000 nM | C=C(C)C(=O)Nc1ccc(-c2c(-c3ccc(-c4ccccn4)s3)c3c(N)ncnc3n2C)cc1 [Example 1278] |
| 1000 to 100000 nM | C=C(C)C(=O)Nc1ccc(-c2c(C3=CC[C@@]4(CC3)Cc3ccccc3C4=O)c3c(N)ncnc3n2C)cc1 (single isomer, unassigned) [Example 987] |
| 1000 to 100000 nM | C#Cc1cc2cc(-c3c(-c4ccc(Oc5nccc(C)n5)c(F)c4)c4c(N)ncnc4n3C)ccc2cn1 [Example 1402] |
| 1000 to 100000 nM | C=CC(=O)N1CC=C(c2ccc(-c3c(-c4ccc(Oc5cccc(C)n5)cc4)c4c(N)ncnc4n3C)cc2)C1 [Example 989] |
| 1000 to 100000 nM | C#Cc1ccc(-c2c(-c3ccc(C(=O)N4CCCC4)cc3)c3c(N)ncnc3n2C)cn1 [Example 1040] |
| < 100 nM | C#Cc1nc2cc(-c3c(-c4ccc(Oc5nccc(C)n5)c(F)c4)c4c(N)ncnc4n3C)c(F)cc2n1C [Example 1388] |
| 1000 to 100000 nM | C=C(C)C(=O)Nc1ccc(-c2cn3ncnc(N)c3c2-c2ccc(Oc3ncc(F)cn3)c(F)c2)cc1 [Example 827] |

The compounds below were run on SNU-16 (assay: Cell SNU-16 assay). Details: Homo sapiens, SNU-16, SNU-16 cells.
Type: cell-based

| IC50 | Compound |
| --- | --- |
| ≤ 100 nM | C=C1C[C@@H](C)N(c2ccc(-c3c(-c4ccc(Oc5nccc(C)n5)cc4)c4c(N)ncnc4n3C)cc2)C1=O [Example 1113] |
| ≤ 100 nM | C=C(C)C(=O)Nc1ccc(-c2cn3ncnc(N)c3c2-c2ccc(C(=O)NC3CCC3)cc2)cc1 [Example 830] |
| 1000 to 100000 nM | C#Cc1ccc(-c2c(-c3ccc(Oc4nccc(C)n4)c(F)c3)c3c(N)ncnc3n2C)c(F)n1 [Example 1200] |
| ≤ 100 nM | C=C(C)C(=O)Nc1ccc(-c2c(-c3ccc(C(=O)N4CCCC4)cc3)c3c(N)nn(C)c(=O)c3n2C)cc1 [Example 878] |
| 100 to 250 nM | C#Cc1ccc(-c2c(C3=CC[C@@H](C(=O)N4CCC[C@H]4COC)CC3)c3c(N)ncnc3n2C)c(C)n1 (single isomer, unassigned) [Example 1211] |
| ≤ 100 nM | C=C(C)C(=O)Nc1ccc(-c2c(-c3ccc(C(=O)NC4(COC)CCC4)c(OC)c3)c3c(N)ncnc3n2C)cc1 [Example 956] |
| ≤ 100 nM | C#Cc1cc(CO)c(-c2c(-c3ccc(Oc4nccc(C)n4)c(F)c3)c3c(N)ncnc3n2C)cn1 [Example 1228] |
| 250 to 1000 nM | C#Cc1cc(C)c(-c2c(C3=CC[C@@H](C(=O)N4CCCC45CC5)CC3)c3c(N)ncnc3n2C)cn1 [Example 1341] |
| 1000 to 100000 nM | C=C(C)C(=O)Nc1ccc(-c2c(-c3ccc4occc4c3)c3c(N)ncnc3n2C)cc1 [Example 1288] |
| ≤ 100 nM | C#Cc1ncc(-c2c(C3=CC[C@H](C(=O)N4CCCC4)CC3)c3c(C)ncnc3n2C)c(C)n1 (single isomer, unassigned) [Example 1169] |
| 1000 to 100000 nM | C=CC(=O)Nc1cccc(-c2c(-c3ccc4c(c3)CCCN4C)c3c(N)ncnc3n2C)c1 [Example 1027] |
| 100 to 250 nM | C=C(C)C(=O)Nc1ccc(-c2c(-c3ccc(-c4noc(C5CC5)n4)c(O)c3)c3c(N)ncnc3n2C)cc1 [Example 1373] |
| 1000 to 100000 nM | C=C(C)C(=O)Nc1ccc(-c2oc3ncnc(N)c3c2-c2ccc(Oc3cccc(C)n3)cc2)cc1 [Example 802] |
| 1000 to 100000 nM | Cc1ccnc(Oc2ccc(-c3c(-c4ccc(OC[C@@H]5CO5)cc4)n(C)c4ncnc(N)c34)cc2)n1 (single isomer, unassigned) [Example 918] |
| 250 to 1000 nM | C=C(C)C(=O)Nc1ccc(-c2c(-c3ccc(Oc4cccc(C)n4)cc3)c3c(N)ncnn3c2C#N)cc1 [Example 824] |
| ≤ 100 nM | C#Cc1cc(C)c(-c2c(-c3ccc(Oc4nccc(C)n4)cn3)c3c(N)ncnc3n2C)cn1 [Example 1327] |
| ≤ 100 nM | C=C(C)C(=O)Nc1ccc(-c2c(C3=CC[C@H](C(=O)N4CCC5(CC5)C4)CC3)c3c(N)ncnc3n2C)cc1 (single isomer, unassigned) [Example 892] |
| 1000 to 100000 nM | C=CC(=O)N[C@H]1CCc2ccc(-c3c(-c4ccc(Oc5nccc(C)n5)cc4)c4c(N)ncnc4n3C)cc2C1 (single isomer, unassigned) [Example 945] |
| ≤ 100 nM | C=C1CCN(c2ccc(-c3c(C4=CC[C@H](C(=O)N5CCCC5)CC4)c4c(C)ncnc4n3C)c(Cl)c2)C1=O (single isomer, unassigned) [Example 1141] |
| 250 to 1000 nM | C=C(C)C(=O)Nc1ccc(-c2c(-c3ccc(-c4ccccn4)s3)c3c(N)ncnc3n2C)cc1 [Example 1278] |
| 1000 to 100000 nM | C=C(C)C(=O)Nc1ccc(-c2c(C3=CC[C@@]4(CC3)Cc3ccccc3C4=O)c3c(N)ncnc3n2C)cc1 (single isomer, unassigned) [Example 987] |
| 1000 to 100000 nM | C#Cc1cc2cc(-c3c(-c4ccc(Oc5nccc(C)n5)c(F)c4)c4c(N)ncnc4n3C)ccc2cn1 [Example 1402] |
| 250 to 1000 nM | C=CC(=O)N1CC=C(c2ccc(-c3c(-c4ccc(Oc5cccc(C)n5)cc4)c4c(N)ncnc4n3C)cc2)C1 [Example 989] |
| 250 to 1000 nM | C#Cc1ccc(-c2c(-c3ccc(C(=O)N4CCCC4)cc3)c3c(N)ncnc3n2C)cn1 [Example 1040] |
| ≤ 100 nM | C#Cc1nc2cc(-c3c(-c4ccc(Oc5nccc(C)n5)c(F)c4)c4c(N)ncnc4n3C)c(F)cc2n1C [Example 1388] |
| 1000 to 100000 nM | C=C(C)C(=O)Nc1ccc(-c2cn3ncnc(N)c3c2-c2ccc(Oc3ncc(F)cn3)c(F)c2)cc1 [Example 827] |

Same assay, conditions: SNU-16 cells

| IC50 | Compound |
| --- | --- |
| ≤ 100 nM | C#Cc1cc(OC)c(-c2c(-c3ccc(Oc4nccc(C)n4)c(F)c3)c3c(C)ncnc3n2C)c(C)n1 (atropisomer, axis not shown) [Example 1446] |
